The record followed here is ChEMBL document CHEMBL3881522, “Interaction inhibitors of TCF-4 with Beta-catenin” (2004).

The source made the active and inactive calls. The rule behind the calls is not given here.

In this assay the target is TCF4/beta-catenin (Homo sapiens) (UniProt P35222+Q9NQB0). The assay can be described thus: Inhibition of TCF-4 ( 1 to 56 residues) (unknown origin) binding to beta-catenin/armadillo (unknown origin) at 50 uM by ITC assay. The class given is protein-complex assay.

For the compound `CS(=O)(=O)N(CCCCOc1ccccc1)c1nc2c(s1)CCc1ccccc1-2`, the inhibition result is “Active”.
Consider `Cc1cc(/C(=C\c2ccccc2)c2ccc(OCCN3CCCC3)cc2)on1`, for which the inhibition entry is “Active”.
`Cc1ccc(Nc2cccc(-c3ccccc3Oc3ccccc3)c2)o1`: the inhibition result is “Active”.
The value for `Cc1ccc(/C=C/c2ccc3[nH]c(-c4ccco4)cc3c2)o1` was “Active”; that for `Cc1ccc(CCc2ccc3[nH]c(-c4cccs4)cc3c2)o1` was “Active”.
The entry for `Cc1cc(NC(=O)c2c(O)cc(Oc3ccccc3)oc2=O)on1` is “Active”.
The entry for `COc1cccc2c1CCc1sc(N(CCOC(C)CCc3ccccc3)C(C)=O)nc1-2` (centres undefined) is “Active”.
In the case of `Cc1ccc(/C=N/c2cccc3c(-c4ccncc4)ccnc23)o1`, the inhibition entry was “Active”.
The value for `Cc1ccc(CCc2ccc3[nH]c(-c4ccco4)cc3c2)o1` was “Active”; that for `O=c1oc(-c2ccccc2)cc(O)c1/C=C/c1nnc(Br)o1` was “Active”; that for `CC(=O)N(CCCC(C)c1ccccc1)c1nc2c(s1)CCc1ccccc1-2` (centres undefined) was “Active”.
Consider `Cc1ccc(COc2ccccc2C=C2CCN(S(=O)(=O)c3ccncc3)CC2)o1`, for which the inhibition entry is “Active”.
The value for `Cc1ccc(/C(=N\NC(=O)c2ccccc2Oc2ccccc2)c2ccccn2)o1` was “Active”; that for `Nc1n[nH]c(CC2CN(c3ccc(N4CCOCC4)c(F)c3)C(=O)O2)n1` (centres undefined) was “Active”; that for `CS(=O)(=O)N(CCOCCc1ccccc1)c1nc2c([nH]1)CCc1ccccc1-2` was “Active”.
The value for `Cc1nnc(-c2sc3nc(-c4ccc(Cl)cc4)nn3c2C)o1` was “Active”.
For `Cc1ccc(/C=N/NC(=O)c2ccccc2Oc2ccccc2)o1`, the inhibition entry was “Active”.
The value for `Cc1cc(NC(=O)NC(=O)c2nnc(-c3ccccc3)o2)no1` was “Active”; that for `Cc1ccc(/C=N/Nc2cc(C(=O)NCCc3ccccc3)cc3c2CCc2ccncc2-3)o1` was “Active”; that for `Cc1ccc(NC(=O)c2c(O)cc(-c3ccccc3)oc2=O)o1` was “Active”.
For `Cc1ccc(/C=N/n2c(=O)n(-c3ccncc3)c(=O)c3ccccc32)o1`, the inhibition entry is “Active”.
For the compound `O=C(CCNS(=O)(=O)c1ccccc1)NNS(=O)(=O)Cc1ccc(Cl)s1`, the inhibition result is “Active”.
The value for `C/C(=N\NC(=O)COc1ccccc1)c1ccc(C)s1` was “Active”; that for `O=C(c1ccc(Br)o1)N1CCN(C(c2ccccc2)c2ccccc2)CC1` was “Active”; that for `Cc1cc(NC(=O)c2ccc(Oc3ccccc3)cc2)on1` was “Active”.
The entry for `O=C(Nc1nnc(Br)o1)c1c(O)cc(-c2ccccc2)oc1=O` is “Active”.
The value for `Cc1ccc(C(=O)N2CCN(C(c3ccccc3)c3ccccc3)CC2)s1` was “Active”.
As for `O=S(=O)(c1ccc(OCc2cnc(Cl)s2)cc1)N1CCOCC1`, the inhibition entry was “Active”.
The entry for `Oc1nnc(CCCc2ccc(Oc3ccccc3)cc2)o1` is “Active”.
As for `Cc1ccc(/C(=N\NC(=O)c2ccccc2Oc2ccccc2)c2ccccc2)s1`, the inhibition result is “Active”.
The value for `Cc1ccc(-c2ccc3ccc(Oc4ccncc4)cc3c2)o1` was “Active”; that for `Nc1n[nH]c(CC2CN(c3ccc(N4CCNCC4)c(Cl)c3)C(=O)N2)n1` (centres undefined) was “Active”; that for `O=C(c1ccncc1)N1CCC(=Cc2ccccc2OCc2ccc(Br)o2)CC1` was “Active”.
With `Cc1cc(CNC(=O)/C=C2\C(=O)N(c3ccncc3)c3ccccc32)on1`, the inhibition result was “Active”.
The value for `C/C(=N\NC(=O)OCc1ccccc1)c1cc(C)cs1` was “Active”; that for `Cc1ccc(/C=N/N=C2\C(=O)N(c3ccncc3)c3ccccc32)o1` was “Active”; that for `Cc1ccc(/C(=N\NC(=O)c2ccccc2Nc2ccccc2)c2ccccc2)o1` was “Active”.
`Cc1ccc(CNC(=O)/C=C2\C(=O)N(c3ccncc3)c3ccccc32)o1`: the inhibition result is “Active”.
`Cc1cc(-c2onc(C)c2COC(=O)Nc2ccccc2)no1`: the inhibition entry is “Active”.
